Laboratory results reported in ChEMBL document CHEMBL6121047, “Design, Synthesis, and Evaluation of Selective PDE4 Inhibitors for the Therapy of Pulmonary Injury” (J Med Chem, 2025).
Activity calls are given as the source filed them. No cut-off for these calls is given here.

Assays:
[1] = target: 3',5'-cyclic-AMP phosphodiesterase 4B (Homo sapiens, UniProt Q07343); test: Inhibition of recombinant full length PDE4B (unknown origin) using FAM-cAMP as substrate at 1 uM preincubated with compound for compound for 15 mins followed by substrate addition and measured after 30 mins by Envision multilabel reader analysis relative to control; conditions: time 45.0 min
[2] = test system: HEK-293T; test: Cytotoxicity against human HEK293T cells assessed as reduction in cell viability incubated for 24 hrs by CCK-8 assay; type: toxicity, cell-based; set-up: concentration or dose not given beside the values
[3] = test system: RAW264.7; test: Cytotoxicity against mouse RAW264.7 cells assessed as reduction in cell viability incubated for 24 hrs by CCK-8 assay; type: toxicity, cell-based; conditions: raw264.7, 24 h
[4] = test system: HepG2; test: Cytotoxicity against human HepG2 cells assessed as reduction in cell viability incubated for 24 hrs by CCK-8 assay; type: toxicity, cell-based; conditions: hepg2, 24 h
[5] = test system: Mus musculus; test: Anti-inflammatory activity against LPS-induced acute lung injury male BALB/c mouse model assessed as restoration of alveolar septa in lung at 4 mg/kg administered once a day via gavage for 7 days followed by LPS stimulation and measured after 24 hrs by H and E staining based microscopic analysis; type: functional, organism-based; conditions: time 192.0 hrs
[6] = test system: Mus musculus; test: Anti-inflammatory activity against LPS-induced acute lung injury male BALB/c mouse model assessed as restoration of alveolar cavities in lung at 4 mg/kg administered once a day via gavage for 7 days followed by LPS stimulation and measured after 24 hrs by H and E staining based microscopic analysis; type: functional, organism-based; conditions: time 192.0 hrs
[7] = test system: Mus musculus; test: Anti-inflammatory activity against LPS-induced acute lung injury male BALB/c mouse model assessed as relaxation of alveolar in lung at 4 mg/kg administered once a day via gavage for 7 days followed by LPS stimulation and measured after 24 hrs by H and E staining based microscopic analysis; type: functional, organism-based; conditions: time 192.0 hrs
[8] = test system: Mus musculus; test: Anti-inflammatory activity against LPS-induced acute lung injury male BALB/c mouse model assessed as enlarged bronchiole tubes in lung at 4 mg/kg administered once a day via gavage for 7 days followed by LPS stimulation and measured after 24 hrs by H and E staining based microscopic analysis; type: functional, organism-based; conditions: time 192.0 hrs
[9] = test system: Mus musculus; test: Antifibrotic activity against LPS-induced acute lung injury male BALB/c mouse model assessed as decrease in collagen deposition at 4 mg/kg administered once a day via gavage for 7 days followed by LPS stimulation and measured after 24 hrs by masson staining based microscopic analysis; type: functional, organism-based; conditions: time 192.0 hrs
[10] = test system: Mus musculus; test: (§1) Anti-inflammatory activity against cigarette-smoke/LPS-induced COPD male C57BL/6 mouse model assessed as reduction in TNF-alpha level in BALF at 5 mg/kg pretreated with cigarette smoke exposure for 21 weeks with subsequent LPS induction twice on the first and 15th day followed by compound administration every day via gavage for 4 weeks; type: functional, organism-based
[11] = test system: Mus musculus; test: as §1, with “IL-6” for “TNF-alpha”; type: functional, organism-based
[12] = test system: Mus musculus; test: as §1, with “MMP9” for “TNF-alpha”; type: functional, organism-based
[13] = test system: Mus musculus; test: as §1, with “reduction in bronchiole thickness at 5” for “reduction in TNF-alpha level in BALF at 5”, “4 weeks by H and E staining based microscopic analysis” for “4 weeks”; type: functional, organism-based
[14] = test system: Mus musculus; test: Anti-inflammatory activity against cigarette-smoke/LPS-induced COPD male C57BL/6 mouse model assessed as decrease in collagen formation at 5 mg/kg pretreated with cigarette smoke exposure for 21 weeks with subsequent LPS induction twice on the first and 15th day followed by compound administration every day via gavage for 4 weeks by masson staining based microscopic analysis; type: functional, organism-based
[15] = Inhibition of PDE3 (unknown origin); set-up: species or system Homo sapiens
[16] = target: Phosphodiesterase 4 (Homo sapiens, UniProt P27815+Q08499+Q07343+Q08493); test: Inhibition of PDE4 (unknown origin); type: protein assay

3',5'-cyclic-AMP phosphodiesterase 4B, sequence (Q07343 whole entry): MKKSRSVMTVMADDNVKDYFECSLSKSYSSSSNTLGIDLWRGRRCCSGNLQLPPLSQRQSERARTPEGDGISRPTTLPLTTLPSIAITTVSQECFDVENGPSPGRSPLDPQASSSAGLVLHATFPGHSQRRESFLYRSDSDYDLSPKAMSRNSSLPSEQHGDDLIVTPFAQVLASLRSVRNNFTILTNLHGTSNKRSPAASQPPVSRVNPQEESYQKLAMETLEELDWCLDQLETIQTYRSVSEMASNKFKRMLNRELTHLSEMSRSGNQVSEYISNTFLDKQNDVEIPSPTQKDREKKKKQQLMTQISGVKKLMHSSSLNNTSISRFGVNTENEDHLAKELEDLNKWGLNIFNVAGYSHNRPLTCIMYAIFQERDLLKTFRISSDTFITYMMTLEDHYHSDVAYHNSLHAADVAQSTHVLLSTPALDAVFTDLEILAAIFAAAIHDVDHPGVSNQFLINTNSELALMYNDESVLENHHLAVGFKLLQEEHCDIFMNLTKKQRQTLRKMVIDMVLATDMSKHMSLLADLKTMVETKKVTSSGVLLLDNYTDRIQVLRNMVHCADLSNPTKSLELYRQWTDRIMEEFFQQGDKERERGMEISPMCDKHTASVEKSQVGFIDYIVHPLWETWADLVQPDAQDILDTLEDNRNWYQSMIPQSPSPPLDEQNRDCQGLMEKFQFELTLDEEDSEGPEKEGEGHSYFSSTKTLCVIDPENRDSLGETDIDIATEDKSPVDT

Compound | inhibition [1] | also measured
O=C(ON1C(=O)CCC1=O)c1cccc2[nH]c(-c3ccc(OC(F)F)c(OCC4CC4)c3)nc12 | 91.5% | –
O=C(Nc1ccccn1)c1cccc2[nH]c(-c3ccc(OC(F)F)c(OCC4CC4)c3)nc12 | 81.6% | –
O=C(NCc1ccccn1)c1cccc2[nH]c(-c3ccc(OC(F)F)c(OCC4CC4)c3)nc12 | 93.9% | Activity [3]: Non-toxic
FC(F)Oc1ccc(-c2nc3cc(-c4ccncc4)ccc3[nH]2)cc1OCC1CC1 | 81.4% | –
O=C(Nc1ccc2ncsc2c1)c1cccc2[nH]c(-c3ccc(OC(F)F)c(OC(F)F)c3)nc12 | 70.2% | –
O=C(Nc1nc2ccccc2s1)c1cccc2[nH]c(-c3ccc(OC(F)F)c(OCC4CC4)c3)nc12 | 53.1% | –
Cn1cc(NC(=O)c2cccc3[nH]c(-c4ccc(OC(F)F)c(OCC5CC5)c4)nc23)cn1 | 93.6% | Activity [4]: Non-toxic; Activity [3]: Non-toxic
O=C(NCc1ncccn1)c1cccc2[nH]c(-c3ccc(OC(F)F)c(OCC4CC4)c3)nc12 | 95.5% | –
O=C(Nc1ccncc1)c1cccc2[nH]c(-c3ccc(OC(F)F)c(OCC4CC4)c3)nc12 | 65.6% | –
O=C(NCc1ccccc1F)c1cccc2[nH]c(-c3ccc(OC(F)F)c(OCC4CC4)c3)nc12 | 85.2% | –
O=C(NCc1ccc2ccccc2c1)c1cccc2[nH]c(-c3ccc(OC(F)F)c(OCC4CC4)c3)nc12 | 90.1% | Activity [4]: Non-toxic; Activity [3]: Non-toxic
O=C(O)c1ccc(NNC(=O)c2cccc3[nH]c(-c4ccc(OC(F)F)c(OCC5CC5)c4)nc23)cc1 | 96.2% | Activity [4]: Non-toxic; Activity [3]: Non-toxic
O=C(Nc1ccccc1)c1cccc2[nH]c(-c3ccc(OC(F)F)c(OCC4CC4)c3)nc12 | 83.8% | –
Cn1ccc(NC(=O)c2cccc3[nH]c(-c4ccc(OC(F)F)c(OCC5CC5)c4)nc23)n1 | 94.1% | –
O=C(NCc1cccnc1)c1cccc2[nH]c(-c3ccc(OC(F)F)c(OCC4CC4)c3)nc12 | 91.1% | Activity [3]: Non-toxic
O=C(NCC1CCOCC1)c1cccc2[nH]c(-c3ccc(OC(F)F)c(OCC4CC4)c3)nc12 | 94.6% | –
N#Cc1ccc(NNC(=O)c2ccc3[nH]c(-c4ccc(OC(F)F)c(OCC5CC5)c4)nc3c2)cc1 | 76.2% | –
O=C(Nc1cccnc1)c1cccc2[nH]c(-c3ccc(OC(F)F)c(OCC4CC4)c3)nc12 | 90.1% | Activity [4]: Non-toxic; Activity [3]: Non-toxic
O=C(Nc1ccc2ncsc2c1)c1cccc2[nH]c(-c3ccc(OC(F)F)c(OCC4CC4)c3)nc12 | 79.3% | –
O=C(Nc1nccs1)c1cccc2[nH]c(-c3ccc(OC(F)F)c(OC(F)F)c3)nc12 | 68% | –
O=C(Nc1c(Cl)cncc1Cl)c1ccc(OC(F)F)c(OCC2CC2)c1 | – | Activity [5]: Active; Activity [6]: Active; Activity [7]: Active; Activity [8]: Active; Activity [9]: Active; Activity [10]: Active; Activity [11]: Active; Activity [12]: Active; Activity [13]: Active; Activity [14]: Active
O=C(NCc1ccccc1)c1cccc2[nH]c(-c3ccc(OC(F)F)c(OCC4CC4)c3)nc12 | 92.2% | Activity [2]: > 70%; Activity [3]: Non-toxic
COc1cc2c(cc1OC)-c1c/c(=N\c3c(C)cc(C)cc3C)n(CCNC(N)=O)c(=O)n1CC2 [ENSIFENTRINE] | – | IC50 [15]: 0.4 nM; IC50 [16]: 1479 nM
O=S(=O)(c1ccccc1)n1cc(-c2ccc3[nH]c(-c4ccc(OC(F)F)c(OCC5CC5)c4)nc3c2)c2ccccc21 | 25.8% | –
O=C(Nc1ccncc1)c1ccc2[nH]c(-c3ccc(OC(F)F)c(OCC4CC4)c3)nc2c1 | 62.3% | –
O=C(NCc1cnccn1)c1cccc2[nH]c(-c3ccc(OC(F)F)c(OCC4CC4)c3)nc12 | 93.3% | –
O=C(NCc1c(F)cccc1F)c1cccc2[nH]c(-c3ccc(OC(F)F)c(OCC4CC4)c3)nc12 | 94.4% | Activity [2]: > 70%; Activity [3]: Non-toxic
O=C(Nc1ccc2[nH]ccc2c1)c1cccc2[nH]c(-c3ccc(OC(F)F)c(OCC4CC4)c3)nc12 | 93.5% | Activity [4]: Non-toxic; Activity [3]: Non-toxic

Continued, in another order:

inhibition [1] | Compound | also measured
91.9% | O=C(NCc1cccc(F)c1F)c1cccc2[nH]c(-c3ccc(OC(F)F)c(OCC4CC4)c3)nc12 | Activity [2]: > 70%; Activity [3]: Non-toxic
80.9% | COc1ccc(-c2ccc3[nH]c(-c4ccc(OC(F)F)c(OCC5CC5)c4)nc3c2)cc1OC | –
49.2% | COc1ccc(-c2nc3cc(C(=O)Nc4ccc5ncsc5c4)ccc3[nH]2)cc1OCC1CC1 | –
56.8% | Cc1nc2ccc(NC(=O)c3cccc4[nH]c(-c5ccc(OC(F)F)c(OCC6CC6)c5)nc34)cc2s1 | –
82.4% | O=C(NCc1cc(F)cc(F)c1)c1cccc2[nH]c(-c3ccc(OC(F)F)c(OCC4CC4)c3)nc12 | –
94% | O=C(NCc1ccc(F)cc1F)c1cccc2[nH]c(-c3ccc(OC(F)F)c(OCC4CC4)c3)nc12 | Activity [2]: > 70%; Activity [3]: Non-toxic
42.5% | COc1ccc(-c2nc3cc(C(=O)NCc4ncccn4)ccc3[nH]2)cc1OCC1CC1 | –
90.6% | O=C(NCc1ccc(F)c(F)c1)c1cccc2[nH]c(-c3ccc(OC(F)F)c(OCC4CC4)c3)nc12 | Activity [2]: > 70%; Activity [3]: Non-toxic
93.4% | COc1ccc(CNC(=O)c2cccc3[nH]c(-c4ccc(OC(F)F)c(OCC5CC5)c4)nc23)cn1 | Activity [3]: Non-toxic
88.6% | O=C(NCc1c(F)cc(F)cc1F)c1cccc2[nH]c(-c3ccc(OC(F)F)c(OCC4CC4)c3)nc12 | –
88.8% | O=C(NCc1cc(F)ccc1F)c1cccc2[nH]c(-c3ccc(OC(F)F)c(OCC4CC4)c3)nc12 | –
62.2% | O=C(ON1C(=O)CCC1=O)c1ccc2[nH]c(-c3ccc(OC(F)F)c(OCC4CC4)c3)nc2c1 | –
73.3% | O=C(NCc1c(F)cc(F)cc1F)c1cccc2[nH]c(-c3ccc(OC(F)F)c(OC(F)F)c3)nc12 | –
24.8% | O=C(NCc1ccc(F)cc1F)c1ccc2[nH]c(-c3ccc(OC(F)F)c(OCC4CC4)c3)nc2c1 | –
62.3% | O=C(NCc1ncccn1)c1ccc2[nH]c(-c3ccc(OC(F)F)c(OCC4CC4)c3)nc2c1 | –
23.3% | COc1ccc(-c2nc3cc(C(=O)NCc4ccc(F)cc4F)ccc3[nH]2)cc1OCC1CC1 | –
